{
  "source": "patent US20180298053A1",
  "about": "“ANTIBIOTIC OLIGOPEPTIDES” (priority 2017, published 2018)",
  "system": "E. coli (ATTC 8739)",
  "experiment": "Zone of inhibition test",
  "format": "cell-based",
  "settings": "at 12.5 μg, FIG. 1B",
  "method": "Compound A was tested against L-phenylalanine-(S)-2-amino-N-hydroxy-4-(methylthio)butanamide hydrochloride (Example 3) in a side-by-side comparison in a conventional zone of inhibition test. In this test, both compounds were compared at various concentrations against E. coli (ATTC 8739) grown in a Petri dish using the antibiotic kanamycin as a control.",
  "note": "Where a name gives a salt, the structure may show the parent alone. Square brackets hold non-standard residues; d marks the D form. Peptide text beside a SMILES is read from it. * marks the point of attachment. ξ: configuration not given here. ξF = NC(Cc1ccccc1)C(=O)O; NHOH = ON*",
  "data": [
    {"smiles": "CSCC[C@H](NC(=O)C(N)Cc1ccccc1)C(=O)NO", "note": "(stereo partly drawn) [Example 3, L-phenylalanine-(S)-2-amino-N-hydroxy-4-(methylthio)butanamide Hydrochloride] (H-[ξF]-Met-{NHOH})", "values": [
      {"measurement": "strength of zone of inhibition compared with cpd. A at 50 μg", "result": "substantially stronger"}
    ]}
  ]
}
